This passage reports MIC80 results from ChEMBL document CHEMBL1139935, “Discovery of novel indazole-linked triazoles as antifungal agents” (2007).

In general, MIC80 refers to an inhibitory concentration at the 80% level, which refers to growth in some studies and to a panel of isolates in others.

Assay [1] concerns Nakaseomyces glabratus. Kind of assay: Antifungal activity against Candida glabrata ATCC 34138 by broth microdilution assay. Format: functional.
Assay [2] concerns Candida parapsilosis. Description: Antifungal activity against Candida parapsilosis ATCC 21019 by broth microdilution assay. In kind it is functional. Conditions: Lodderomyces parapsilosis.
Assay [3] relates to Cryptococcus neoformans. Description: Antifungal activity against Cryptococcus neoformans ATCC 24065 by broth microdilution assay. Background: Broth dilution looks for growth in wells or tubes with falling amounts of substance.
Assay [4] concerns Candida tropicalis. Description: Antifungal activity against Candida tropicalis ATCC 750 by broth microdilution assay. In kind it is functional.
Assay [5] relates to Aspergillus fumigatus. Kind of assay: Antifungal activity against Aspergillus fumigatus ATCC 16424 by broth microdilution assay. Format: functional.
The test system of assay [6] is Aspergillus flavus. Description: Antifungal activity against Aspergillus flavus ATCC MYA-1004 by broth microdilution assay. Format: functional.
Assay [7] has as its system Aspergillus terreus. Kind of assay: Antifungal activity against Aspergillus terreus ATCC 28301 by broth microdilution assay. Format: functional.
For assay [8], the system named is Candida albicans. Description: Antifungal activity against Candida albicans ATCC 36082 by broth microdilution assay. Format: functional.
Assay [9] deals with Pichia kudriavzevii. Description: Antifungal activity against Candida krusei ATCC 6528 by broth microdilution assay. In kind it is functional.
The test system of assay [10] is Clavispora lusitaniae. Kind of assay: Antifungal activity against Candida lusitaniae ATCC 42720 by broth microdilution assay. Format: functional.
In assay [11] the test system is Aspergillus niger. Description: Antifungal activity against Aspergillus niger ATCC 9042 by broth microdilution assay. Format: functional.

Converted amounts (≈) assume the structure as drawn.

As for `Cc1nn([C@H](C)[C@](O)(Cn2cncn2)c2ccc(F)cc2F)c2cc(F)ccc12`, the MIC80 was over 8 µg/mL in assay [1]; 0.5 µg/mL (≈ 1.25 µM) in assay [2]; 0.5 µg/mL (≈ 1.25 µM) in assay [3]; over 8 µg/mL in assay [4]; 16 µg/mL (≈ 39.9 µM) in [5]; over 16 µg/mL in assay [6]. The MIC80 in assay [7] was over 16 µg/mL; in assay [8], 0.031 µg/mL (≈ 0.0772 µM); in [9] it was 8 µg/mL (≈ 19.9 µM); in assay [10], 0.25 µg/mL (≈ 0.623 µM); in assay [11], over 16 µg/mL.

With `CCc1nn([C@H](C)[C@](O)(Cn2cncn2)c2ccc(F)cc2F)c2ccc(F)cc12`, the MIC80 in [1] is 4 µg/mL (≈ 9.63 µM); in [2] it was 0.125 µg/mL (≈ 0.301 µM); in assay [3], 0.125 µg/mL (≈ 0.301 µM); in assay [4], 2 µg/mL (≈ 4.81 µM); in [5], 16 µg/mL (≈ 38.5 µM); in assay [6], over 16 µg/mL. Besides, the MIC80 in assay [7] was over 16 µg/mL; in assay [8] it was at most 0.015 µg/mL; in assay [9] it was 2 µg/mL (≈ 4.81 µM); in [10] it was 0.063 µg/mL (≈ 0.152 µM); in [11], over 16 µg/mL.

With `C[C@@H](n1ncc2ccc([N+](=O)[O-])cc21)[C@](O)(Cn1cncn1)c1ccc(F)cc1F`, the MIC80 in [1] was 8 µg/mL (≈ 19.3 µM); in [2], at most 0.015 µg/mL; in assay [3], 0.25 µg/mL (≈ 0.603 µM); in assay [4], at most 0.015 µg/mL; in [5], 2 µg/mL (≈ 4.83 µM); in assay [6], 2 µg/mL (≈ 4.83 µM). Further, the MIC80 is 2 µg/mL (≈ 4.83 µM) in assay [7]; at most 0.015 µg/mL in [8]; 0.5 µg/mL (≈ 1.21 µM) in assay [9]; at most 0.015 µg/mL in assay [10]; 4 µg/mL (≈ 9.65 µM) in assay [11].

With `C[C@@H](n1ncc2cccc([N+](=O)[O-])c21)[C@](O)(Cn1cncn1)c1ccc(F)cc1F`, the MIC80 in [1] was 4 µg/mL (≈ 9.65 µM); in [2], at most 0.015 µg/mL; in [3], 0.125 µg/mL (≈ 0.302 µM); in assay [4], at most 0.015 µg/mL; in [5], 2 µg/mL (≈ 4.83 µM); in [6] it was 1 µg/mL (≈ 2.41 µM). Also, the MIC80 in [7] was 2 µg/mL (≈ 4.83 µM); in assay [8] it was at most 0.015 µg/mL; in assay [9], 0.5 µg/mL (≈ 1.21 µM); in [10], at most 0.015 µg/mL; in [11] it was 4 µg/mL (≈ 9.65 µM).

On to `OC(Cn1cncn1)(Cn1cncn1)c1ccc(F)cc1F` [FLUCONAZOLE], for which the MIC80 is over 8 µg/mL in assay [1]; over 8 µg/mL in assay [2]; 8 µg/mL (≈ 26.1 µM) in [3]; over 8 µg/mL in [4]; over 128 µg/mL in assay [5]; over 128 µg/mL in [6]. In addition, the MIC80 in assay [7] is over 128 µg/mL; in assay [8], 2 µg/mL (≈ 6.53 µM); in assay [9], over 8 µg/mL; in assay [10], 8 µg/mL (≈ 26.1 µM); in assay [11], over 128 µg/mL.

Consider `Cc1nn([C@H](C)[C@](O)(Cn2cncn2)c2ccc(F)cc2F)c2ccc([N+](=O)[O-])cc12`, for which the MIC80 in assay [1] was determined as 8 µg/mL (≈ 18.7 µM); in [2] it was 0.125 µg/mL (≈ 0.292 µM); in [3] it was 0.25 µg/mL (≈ 0.584 µM); in assay [4], 4 µg/mL (≈ 9.34 µM); in assay [5], 4 µg/mL (≈ 9.34 µM); in assay [6], 16 µg/mL (≈ 37.3 µM). For the same molecule, the MIC80 was determined as 8 µg/mL (≈ 18.7 µM) in [7]; 0.015 µg/mL (≈ 0.035 µM) in assay [8]; 4 µg/mL (≈ 9.34 µM) in assay [9]; 0.063 µg/mL (≈ 0.147 µM) in [10]; 16 µg/mL (≈ 37.3 µM) in assay [11].

On to `C[C@@H](n1nc(-c2ccccc2)c2cc([N+](=O)[O-])ccc21)[C@](O)(Cn1cncn1)c1ccc(F)cc1F`, for which, in [8], the MIC80 amounted to 2 µg/mL (≈ 4.08 µM).

Regarding `Cc1nn([C@H](C)[C@](O)(Cn2cncn2)c2ccc(F)cc2F)c2ccc(Cl)cc12`, the MIC80 in [1] is 4 µg/mL (≈ 9.57 µM); in assay [2] it was 0.125 µg/mL (≈ 0.299 µM); in assay [3] it was 0.25 µg/mL (≈ 0.598 µM); in assay [4] it was 1 µg/mL (≈ 2.39 µM); in assay [5], over 16 µg/mL; in assay [6] it was over 16 µg/mL. Moreover, the MIC80 in [7] was over 16 µg/mL; in assay [8], at most 0.015 µg/mL; in [9], 2 µg/mL (≈ 4.79 µM); in [10], at most 0.015 µg/mL; in assay [11], over 16 µg/mL.

As to `C[C@@H](n1ncc2cc(N(C)C)ccc21)[C@](O)(Cn1cncn1)c1ccc(F)cc1F`, the MIC80 in assay [1] worked out at 8 µg/mL (≈ 19.4 µM); in assay [2] it was 0.5 µg/mL (≈ 1.21 µM); in assay [3], 0.25 µg/mL (≈ 0.606 µM); in assay [4], 0.5 µg/mL (≈ 1.21 µM); in assay [5], 1 µg/mL (≈ 2.42 µM); in assay [6], 1 µg/mL (≈ 2.42 µM). The MIC80 came out at 2 µg/mL (≈ 4.85 µM) in assay [7]; 0.063 µg/mL (≈ 0.153 µM) in [8]; 1 µg/mL (≈ 2.42 µM) in [9]; 0.063 µg/mL (≈ 0.153 µM) in assay [10]; 2 µg/mL (≈ 4.85 µM) in assay [11].

In the case of `C[C@@H](n1ncc2cc(F)ccc21)[C@](O)(Cn1cncn1)c1ccc(F)cc1F`, the MIC80 in assay [1] is 4 µg/mL (≈ 10.3 µM); in assay [2], 0.125 µg/mL (≈ 0.323 µM); in assay [3], 0.063 µg/mL (≈ 0.163 µM); in [4], 0.25 µg/mL (≈ 0.645 µM); in [5], 4 µg/mL (≈ 10.3 µM); in assay [6], 4 µg/mL (≈ 10.3 µM). For the same molecule, the MIC80 was 4 µg/mL (≈ 10.3 µM) in assay [7]; at most 0.015 µg/mL in [8]; 1 µg/mL (≈ 2.58 µM) in assay [9]; at most 0.015 µg/mL in [10]; 8 µg/mL (≈ 20.7 µM) in assay [11].

As for `C[C@@H](c1nc(-c2ccc(C#N)cc2)cs1)[C@](O)(Cn1cncn1)c1ccc(F)cc1F` [RAVUCONAZOLE], the MIC80 in assay [1] is 2 µg/mL (≈ 4.57 µM); in [2], at most 0.015 µg/mL; in assay [3], at most 0.015 µg/mL; in [4], at most 0.015 µg/mL; in assay [5], 0.125 µg/mL (≈ 0.286 µM); in [6] it was 0.5 µg/mL (≈ 1.14 µM). Moreover, the MIC80 in assay [7] was 0.5 µg/mL (≈ 1.14 µM); in assay [8], at most 0.015 µg/mL; in assay [9], 0.125 µg/mL (≈ 0.286 µM); in assay [10], at most 0.015 µg/mL; in [11], 1 µg/mL (≈ 2.29 µM).

In the case of `Cc1nn([C@H](C)[C@](O)(Cn2cncn2)c2ccc(F)cc2F)c2ccc(F)cc12`, the MIC80 worked out at 8 µg/mL (≈ 19.9 µM) in assay [1]; 0.5 µg/mL (≈ 1.25 µM) in [2]; 0.5 µg/mL (≈ 1.25 µM) in assay [3]; 4 µg/mL (≈ 9.97 µM) in assay [4]; 4 µg/mL (≈ 9.97 µM) in [5]; 8 µg/mL (≈ 19.9 µM) in [6]. Further, the MIC80 was 4 µg/mL (≈ 9.97 µM) in [7]; 0.031 µg/mL (≈ 0.0772 µM) in assay [8]; 4 µg/mL (≈ 9.97 µM) in assay [9]; 0.125 µg/mL (≈ 0.311 µM) in assay [10]; 16 µg/mL (≈ 39.9 µM) in assay [11].

As to `C[C@@H](n1ncc2c([N+](=O)[O-])cccc21)[C@](O)(Cn1cncn1)c1ccc(F)cc1F`, the MIC80 was 2 µg/mL (≈ 4.83 µM) in assay [1]; 0.031 µg/mL (≈ 0.0748 µM) in [2]; 0.031 µg/mL (≈ 0.0748 µM) in [3]; at most 0.015 µg/mL in assay [4]; 1 µg/mL (≈ 2.41 µM) in [5]; 2 µg/mL (≈ 4.83 µM) in assay [6]. For the same molecule, the MIC80 in assay [7] was 1 µg/mL (≈ 2.41 µM); in assay [8], at most 0.015 µg/mL; in [9], 1 µg/mL (≈ 2.41 µM); in assay [10], at most 0.015 µg/mL; in assay [11], 2 µg/mL (≈ 4.83 µM).

Turning to `C[C@@H]1[C@H](O)[C@@H](C)/C=C/C=C/C=C/C=C/C=C/C=C/C=C/[C@H](O[C@@H]2O[C@H](C)[C@@H](O)[C@H](N)[C@@H]2O)C[C@@H]2O[C@](O)(C[C@@H](O)C[C@@H](O)[C@H](O)CC[C@@H](O)C[C@@H](O)CC(=O)O[C@H]1C)C[C@H](O)[C@H]2C(=O)O` [AMPHOTERICIN B], the MIC80 was found to be 1 µg/mL (≈ 1.08 µM) in assay [5], 4 µg/mL (≈ 4.33 µM) in assay [6], 2 µg/mL (≈ 2.16 µM) in [7] and 0.5 µg/mL (≈ 0.541 µM) in assay [11].

Turning to `NN(Cc1ccccc1)C[C@](O)(Cn1cncn1)c1ccc(F)cc1F`, the MIC80 in [8] amounted to 1 µg/mL (≈ 2.78 µM).

For the molecule `C[C@@H](n1ncc2cc(N)ccc21)[C@](O)(Cn1cncn1)c1ccc(F)cc1F`, the MIC80 in assay [1] is over 8 µg/mL; in assay [2], 2 µg/mL (≈ 5.2 µM); in assay [3], 1 µg/mL (≈ 2.6 µM); in [4], 1 µg/mL (≈ 2.6 µM); in [8], 0.25 µg/mL (≈ 0.65 µM); in [9] it was 8 µg/mL (≈ 20.8 µM). This molecule also had an MIC80 in assay [10] of 0.25 µg/mL (≈ 0.65 µM).
